Like-named read-outs stand apart in the source and are kept apart here.
What was measured:
[1] = Swelling of micro-capsules with single fragrance raw materials (mass fraction in swollen micro-capsule); assay type: physicochemical; conditions: micro-capsules of Example 4 swelled with excess raw material, 1 to 3 days
Description: The capsules were allowed to swallow with an excess of the model-perfume (see Example 1) during 1 to 3 days. The swelled micro-particles were then separated from the remaining perfume by filtration and washed with ethanol. This experiment was repeated for various raw materials having various chemical functionalities or various polarities (i.e. LogP, P being the partition coefficient between octanol and water).

[2] = LogP of fragrance raw materials (partition coefficient between octanol and water); assay type: physicochemical
[3] = P = partition coefficient between octanol and water, read-out: LogP

SMILES	Fragrance mass fraction in the final swollen micro-capsule weight [%] [1] [%]	logP [2, 3]	logP [2]
CC(=O)OCc1ccccc1 [Benzyl acetate]	49.8	1.57	
CCCCCCOC(=O)c1ccccc1O [Hexyl salicylate]	50.7	4.91	
CC(C)=CCC/C(C)=C/CO [Geraniol]	36.2	3.59	
O=C1CCCCCCCCC/C=C/CCCO1 [Habanolide ®, pentadecenolide]	50.3		5.37

— patent US7279542B2, “Polymeric particles and fragrance delivery systems” (Firmenich SA, priority 2003, dated 2007)
